Reference: patent US11753407B2, “Compounds for treating spinal muscular atrophy” (PTC Therapeutics, Inc., priority 2012, dated 2023)

Legend:
[1] = tested on: Smn protein in SMA patient fibroblast cells (GM03813); test: Smn protein assay in cultured cells (SMN HTRF); assay type: cell-based, human; conditions: SMA patient fibroblast cells, 48 hours; for EC1.5x for Smn protein expression: 7-point concentration curve, SMN HTRF, concentration producing 1.5 times Smn protein vs DMSO vehicle control; for maximum fold (Fold) increase of Smn protein: 7-point concentration data, fold relative to vehicle control
How it was run: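 Smn protein abundance in treated SMA fibroblasts was measured by HTRF after 48 h compound exposure. The reported EC1.5× is the concentration producing 1.5 times vehicle Smn levels.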

[2] = tested on: SMN2 minigene mRNA (SMN2-A minigene) in HEK293H cells; test: SMN2 minigene mRNA splicing RT-qPCR assay in cultured cells; assay type: cell-based, human; conditions: Homo sapiens, HEK293-H; concentration increasing full length SMN2 mRNA 1.5-fold relative to vehicle-treated cells; HEK293H cells with SMN2-A minigene, 24 hours, 7-point concentration data; read-out: EC1.5x for production of full length SMN2 mRNA
How it was run: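 Potency reflects the concentration that lifts full-length SMN2 minigene mRNA 1.5-fold above vehicle in stably transfected HEK293H cells after 24 h of treatment. Transcript abundance came from RT-qPCR as (1+E)^−Ct, normalized to GAPDH; endogenous SMN1/SMN2 are not detected.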

SMILES	melting point	EC1.5x for Smn protein expression [1]	maximum fold (Fold) increase of Smn protein [1]	EC (1.5-fold increase) [2] [µM]
Cc1cn2cc(-c3ccc4nc(N5CCNCC5)cc(=O)n4c3)cc(F)c2n1 [Compound 268, 7-(8-fluoro-2-methylimidazo[1,2-a]pyridin-6-yl)-2-(piperazin-1-yl)-4H-pyrido[1,2-a]pyrimidin-4-one]	308 °C (dec.)	**** (an EC1.5x≤0.3 μM is indicated by four stars (****))	***** (a fold increase >1.65 is indicated by five stars (*****))	< 0.1
Cc1cn2cc(-c3cc(=O)n4cc(N5CCN6CCC[C@H]6C5)ccc4n3)cc(F)c2n1 [Compound 271, 2-(8-fluoro-2-methylimidazo[1,2-a]pyridin-6-yl)-7-[(8aS)-hexahydropyrrolo[1,2-a]pyrazin-2(1H)-yl]-4H-pyrido[1,2-a]pyrimidin-4-one]	270 to 274 °C	**** (an EC1.5x≤0.3 μM is indicated by four stars (****))	***** (a fold increase >1.65 is indicated by five stars (*****))	< 0.1
Cc1nc2ccc(-c3cc(=O)n4cc(N5CCNC(C)(C)C5)ccc4n3)cc2s1 [Compound 283, 7-(3,3-dimethylpiperazin-1-yl)-2-(2-methyl-1,3-benzothiazol-6-yl)-4H-pyrido[1,2-a]pyrimidin-4-one]	200 to 202 °C	**** (an EC1.5x≤0.3 μM is indicated by four stars (****))	**** (a fold increase between >1.5 and ≤1.65 is indicated by four stars (****))	< 0.1
Cc1nc2ccc(-c3cc(=O)n4cc(OC5CCNCC5)ccc4n3)cc2s1 [Compound 286, 2-(2-methyl-1,3-benzothiazol-6-yl)-7-(piperidin-4-yloxy)-4H-pyrido[1,2-a]pyrimidin-4-one]	218 to 220 °C	*** (an EC1.5× between >0.3 μM and ≤1 μM is indicated by three stars (***))	**** (a fold increase between >1.5 and ≤1.65 is indicated by four stars (****))	0.3 to 1
Cc1cn2cc(-c3cc(=O)n4cc(N5CCNCC5)ccc4n3)cc(Cl)c2n1 [Compound 287, 2-(8-chloro-2-methylimidazo[1,2-a]pyridin-6-yl)-7-(piperazin-1-yl)-4H-pyrido[1,2-a]pyrimidin-4-one]	245 to 251 °C	**** (an EC1.5x≤0.3 μM is indicated by four stars (****))	***** (a fold increase >1.65 is indicated by five stars (*****))	< 0.1
Cc1cn2cc(-c3cc(=O)n4cc(N5C[C@@H](C)N[C@@H](C)C5)ccc4n3)cc(Cl)c2n1 [Compound 288, 2-(8-chloro-2-methylimidazo[1,2-a]pyridin-6-yl)-7-[(3R,5S)-3,5-dimethylpiperazin-1-yl]-4H-pyrido[1,2-a]pyrimidin-4-one]	289 to 295 °C	**** (an EC1.5x≤0.3 μM is indicated by four stars (****))	***** (a fold increase >1.65 is indicated by five stars (*****))	< 0.1
Cc1cn2cc(-c3cc(=O)n4cc(N5CCCN(C)CC5)ccc4n3)cc(Cl)c2n1 [Compound 289, 2-(8-chloro-2-methylimidazo[1,2-a]pyridin-6-yl)-7-(4-methyl-1,4-diazepan-1-yl)-4H-pyrido[1,2-a]pyrimidin-4-one]	239 to 244 °C	**** (an EC1.5x≤0.3 μM is indicated by four stars (****))	**** (a fold increase between >1.5 and ≤1.65 is indicated by four stars (****))	< 0.1
Cc1cn2cc(-c3cc(=O)n4cc(N5CCN[C@H](C)C5)ccc4n3)cc(Cl)c2n1 [Compound 290, 2-(8-chloro-2-methylimidazo[1,2-a]pyridin-6-yl)-7-[(3R)-3-methylpiperazin-1-yl]-4H-pyrido[1,2-a]pyrimidin-4-one]	236 to 239 °C	**** (an EC1.5x≤0.3 μM is indicated by four stars (****))	***** (a fold increase >1.65 is indicated by five stars (*****))	< 0.1

Now from value to molecule, other results behind:

melting point	SMILES	EC1.5x for Smn protein expression [1]	maximum fold (Fold) increase of Smn protein [1]	EC (1.5-fold increase) [2] [µM]
277 to 280 °C	Cc1cn2cc(-c3cc(=O)n4cc(N5CCN6CCC[C@@H]6C5)ccc4n3)cc(F)c2n1 [Compound 272, 2-(8-fluoro-2-methylimidazo[1,2-a]pyridin-6-yl)-7-[(8aR)-hexahydropyrrolo[1,2-a]pyrazin-2(1H)-yl]-4H-pyrido[1,2-a]pyrimidin-4-one]	**** (an EC1.5x≤0.3 μM is indicated by four stars (****))	***** (a fold increase >1.65 is indicated by five stars (*****))	< 0.1
300 °C (dec.)	Cc1cn2cc(-c3cc(=O)n4cc(N5CC[C@@H](N(C)C)C5)ccc4n3)cc(F)c2n1 [Compound 274, 7-[(3R)-3-(dimethylamino)pyrrolidin-1-yl]-2-(8-fluoro-2-methylimidazo[1,2-a]pyridin-6-yl)-4H-pyrido[1,2-a]pyrimidin-4-one]	**** (an EC1.5x≤0.3 μM is indicated by four stars (****))	***** (a fold increase >1.65 is indicated by five stars (*****))	< 0.1
294 to 297 °C	Cc1cn2cc(-c3cc(=O)n4cc(N5CC[C@H](N(C)C)C5)ccc4n3)cc(F)c2n1 [Compound 275, 7-[(3S)-3-(dimethylamino)pyrrolidin-1-yl]-2-(8-fluoro-2-methylimidazo[1,2-a]pyridin-6-yl)-4H-pyrido[1,2-a]pyrimidin-4-one]	**** (an EC1.5x≤0.3 μM is indicated by four stars (****))	***** (a fold increase >1.65 is indicated by five stars (*****))	< 0.1
167 to 170 °C	COc1ccc(-c2ccc3nc(N4CC[C@@H](N(C)C)C4)cc(=O)n3c2)cc1F [Compound 277, 2-[(3R)-3-(dimethylamino)pyrrolidin-1-yl]-7-(3-fluoro-4-methoxyphenyl)-4H-pyrido[1,2-a]pyrimidin-4-one]		*** (a fold increase between >1.35 and ≤1.5 is indicated by three stars (***))	1 to 3
167 to 169 °C	COc1ccc(-c2ccc3nc(N4CC[C@H](N(C)C)C4)cc(=O)n3c2)cc1F [Compound 278, 2-[(3S)-3-(dimethylamino)pyrrolidin-1-yl]-7-(3-fluoro-4-methoxyphenyl)-4H-pyrido[1,2-a]pyrimidin-4-one]		** (a fold increase between >1.2 and ≤1.35 is indicated by two stars (**))	1 to 3
180 to 186 °C	COc1ccc(-c2cc(=O)n3cc(N4C[C@H]5CN(CCO)C[C@H]5C4)ccc3n2)cc1F [Compound 279, 2-(3-fluoro-4-methoxyphenyl)-7-[(3aR,6aS)-5-(2-hydroxyethyl)hexahydropyrrolo[3,4-c]pyrrol-2(1H)-yl]-4H-pyrido[1,2-a]pyrimidin-4-one]		** (a fold increase between >1.2 and ≤1.35 is indicated by two stars (**))	0.1 to 0.3
207 to 211 °C	COc1ccc(-c2cc(=O)n3cc(N4C[C@@H]5CCN(C)[C@@H]5C4)ccc3n2)cc1F [Compound 280, 2-(3-fluoro-4-methoxyphenyl)-7-[(3aS,6aS)-1-methylhexahydropyrrolo[3,4-b]pyrrol-5(1H)-yl]-4H-pyrido[1,2-a]pyrimidin-4-one]		* (A maximum fold increase of ≤1.2 is indicated by one star (*))	1 to 3
189 to 192 °C	COc1ccc(-c2cc(=O)n3cc(N4C[C@@H]5CN(C(C)C)C[C@@H]5C4)ccc3n2)cc1F [Compound 281, 2-(3-fluoro-4-methoxyphenyl)-7-[(3aR,6aS)-5-(propan-2-yl)hexahydropyrrolo[3,4-c]pyrrol-2(1H)-yl]-4H-pyrido[1,2-a]pyrimidin-4-one]		** (a fold increase between >1.2 and ≤1.35 is indicated by two stars (**))	0.1 to 0.3
188 to 191 °C	COc1ccc(-c2cc(=O)n3cc(N4CC[C@@H](N(C)C)C4)ccc3n2)cc1F [Compound 282, 7-[(3R)-3-(dimethylamino)pyrrolidin-1-yl]-2-(3-fluoro-4-methoxyphenyl)-4H-pyrido[1,2-a]pyrimidin-4-one]		** (a fold increase between >1.2 and ≤1.35 is indicated by two stars (**))	0.3 to 1
254 to 256 °C	Cc1nc2ccc(-c3cc(=O)n4cc(N5CCN6CCC[C@@H]6C5)ccc4n3)cc2s1 [Compound 284, 7-[(8aR)-hexahydropyrrolo[1,2-a]pyrazin-2(1H)-yl]-2-(2-methyl-1,3-benzothiazol-6-yl)-4H-pyrido[1,2-a]pyrimidin-4-one]	*** (an EC1.5× between >0.3 μM and ≤1 μM is indicated by three stars (***))	**** (a fold increase between >1.5 and ≤1.65 is indicated by four stars (****))	0.3 to 1
